{
  "source": "patent US6486196B2",
  "about": "“Anticancer compounds: process for their preparation and pharmaceutical compositions containing them” (Dr. Reddy's Research Foundation, priority 2000, dated 2002)",
  "key": {"[1]": {"tested_on": "MCF-7/ADR", "test": "Sulforhodamine B growth inhibition, breast MCF-7/ADR", "format": "cell-based, human", "settings": "48 h, SRB, read-out: GROWTH INHIBITION (GI 50)", "experimental": "(§1) Each test compound was screened against a battery of cell lines representing eight different types of cancers. In a typical procedure, 1×10^4 cells were seeded into each well of 96 well plate in 100 μL volume of RPMI 1640 medium containing antibiotics and 10% FCS.\n(§2) The plates were incubated at 37° C. in presence of CO2. After 24 h, test compounds were evaluated at five 10 fold dilutions ranging from 100 to 0.01 μM. To each test well 100 μL of test compound solution was added and medium with vehicle was added to control wells and the plates were further incubated. After 48 h of incubation, plates were terminated by Sulforhodamine B method.\n(§3) The optical density which is proportional to protein mass, is then read by automated spectrophotometric plate reader at a wavelength of 515 nm."}, "[2]": {"tested_on": "MCF7", "test": "Sulforhodamine B growth inhibition, breast MCF7", "format": "cell-based, human", "settings": "Homo sapiens, 48 h, SRB, read-out: GROWTH INHIBITION (GI 50)", "experimental": "as §1, §2, §3"}, "[3]": {"tested_on": "U251", "test": "Sulforhodamine B growth inhibition, CNS U251", "format": "cell-based, human", "settings": "SRB, read-out: GROWTH INHIBITION (GI 50)", "experimental": "as §1, §2, §3"}, "[4]": {"tested_on": "SW-620", "test": "Sulforhodamine B growth inhibition, colon SW-620", "format": "cell-based, human", "settings": "48 h, SRB, read-out: GROWTH INHIBITION (GI 50)", "experimental": "as §1, §2, §3"}, "[5]": {"tested_on": "HT29", "test": "Sulforhodamine B growth inhibition, colon HT29", "format": "cell-based, human", "settings": "Homo sapiens, HT-29, 48 h, SRB, read-out: GROWTH INHIBITION (GI 50)", "experimental": "as §1, §2, §3"}, "[6]": {"tested_on": "H522", "test": "Sulforhodamine B growth inhibition, lung H522", "format": "cell-based, human", "settings": "SRB, read-out: GROWTH INHIBITION (GI 50)", "experimental": "as §1, §2, §3"}, "[7]": {"tested_on": "UACC62", "test": "Sulforhodamine B growth inhibition, melanoma UACC62", "format": "cell-based, human", "settings": "Homo sapiens, UACC-62, 48 h, SRB, read-out: GROWTH INHIBITION (GI 50)", "experimental": "as §1, §2, §3"}, "[8]": {"tested_on": "SKOV-3", "test": "Sulforhodamine B growth inhibition, ovarian SKOV-3", "format": "cell-based, human", "settings": "SRB, read-out: GROWTH INHIBITION (GI 50)", "experimental": "as §1, §2, §3"}, "[9]": {"tested_on": "DU145", "test": "Sulforhodamine B growth inhibition, prostate DU145", "format": "cell-based, human", "settings": "SRB, read-out: GROWTH INHIBITION (GI 50)", "experimental": "as §1, §2, §3"}, "[10]": {"tested_on": "PC-3", "test": "Sulforhodamine B growth inhibition, prostate PC-3", "format": "cell-based, human", "settings": "Homo sapiens, 48 h, SRB, read-out: GROWTH INHIBITION (GI 50)", "experimental": "as §1, §2, §3"}, "[11]": {"tested_on": "ACHN", "test": "Sulforhodamine B growth inhibition, renal ACHN", "format": "cell-based", "settings": "Homo sapiens, 48 h, SRB, read-out: GROWTH INHIBITION (GI 50)", "experimental": "as §1, §2, §3"}, "[12]": {"tested_on": "M14", "test": "Sulforhodamine B growth inhibition, melanoma M14", "format": "cell-based, human", "settings": "48 h, SRB, read-out: GROWTH INHIBITION (GI 50)", "experimental": "as §1, §2, §3"}, "[13]": {"tested_on": "A498", "test": "Sulforhodamine B growth inhibition, renal A498", "format": "cell-based, human", "settings": "48 h, SRB, read-out: GROWTH INHIBITION (GI 50)", "experimental": "as §1, §2, §3"}, "[14]": {"tested_on": "HIV-1 (EIB)", "settings": "cited from earlier work"}},
  "note": "Where two headings read alike, the source gives them in different places.",
  "data": [
    {"compound": "C=C1CCC2[C@](C)(CO)[C@H](O)CC[C@]2(C)[C@H]1C/C=C1/C(=O)OC[C@H]1OC(=O)/C=C/c1ccccc1", "note": "(stereo partly shown) [Example 11, 14-Cinnamoyl andrographolide]", "values": [
      {"measurement": "melting point", "result": 77, "unit": "°C"}
    ]},
    {"compound": "C=C1CCC2[C@](C)(CO)[C@H](O)CC[C@]2(C)[C@H]1C/C=C1/C(=O)OC[C@H]1OC(=O)C(C)C", "note": "(stereo partly shown) [Example 12, 14-Isopropanoyl andrographolide]", "values": [
      {"measurement": "melting point", "result": 122.6, "unit": "°C"}
    ]},
    {"compound": "C=C1CCC2[C@](C)(CO)[C@H](O)CC[C@]2(C)[C@H]1C/C=C1/C(=O)OC[C@H]1OC(=O)C(C)(C)C", "note": "(stereo partly shown) [Example 13, 14-Pivaloyl andrographolide]", "values": [
      {"measurement": "melting point", "result": 172.7, "unit": "°C"}
    ]},
    {"compound": "C=C1CCC2[C@](C)(CO)[C@H](O)CC[C@]2(C)[C@H]1C/C=C1/C(=O)OC[C@H]1OC(=O)c1ccccc1", "note": "(stereo partly shown) [Example 14, 14-Benzoyl andrographolide]", "values": [
      {"measurement": "GI50", "setting": "[1]; Homo sapiens, NCI/ADR-RES", "result": 3.5, "unit": "µM"},
      {"measurement": "GI50", "setting": "[2]", "result": 10, "unit": "µM"},
      {"measurement": "GI50", "setting": "[3]; Homo sapiens, U-251, 48 h", "result": 1.5, "unit": "µM"},
      {"measurement": "GI50", "setting": "[4]; Homo sapiens", "result": 3, "unit": "µM"},
      {"measurement": "GI50", "setting": "[5]", "result": 4, "unit": "µM"},
      {"measurement": "GI50", "setting": "[6]; Homo sapiens, NCI-H522, 48 h", "result": 7.5, "unit": "µM"},
      {"measurement": "GI50", "setting": "[7]", "result": 3, "unit": "µM"},
      {"measurement": "GI50", "setting": "[8]; Homo sapiens, SK-OV-3, 48 h", "result": 3.5, "unit": "µM"},
      {"measurement": "GI50", "setting": "[9]; Homo sapiens, DU-145, 48 h", "result": 6, "unit": "µM"},
      {"measurement": "GI50", "setting": "[10]", "result": 2000, "unit": "nM"},
      {"measurement": "GI50", "setting": "[11]", "result": 5, "unit": "µM"},
      {"measurement": "melting point", "result": "85.5 to 87", "unit": "°C"}
    ]},
    {"compound": "C=C1CCC2[C@](C)(CO)[C@H](O)CC[C@]2(C)[C@H]1C/C=C1/C(=O)OC[C@H]1OCc1ccccc1", "note": "(stereo partly shown) [Example 15, 14-Benzyl andrographolide]", "values": [
      {"measurement": "GI50", "setting": "[1]; Homo sapiens, NCI/ADR-RES", "result": 20, "unit": "µM"},
      {"measurement": "GI50", "setting": "[2]", "result": 6, "unit": "µM"},
      {"measurement": "GI50", "setting": "[3]; Homo sapiens, U-251, 48 h", "result": 40, "unit": "µM"},
      {"measurement": "GI50", "setting": "[4]; Homo sapiens", "result": 3.5, "unit": "µM"},
      {"measurement": "GI50", "setting": "[5]", "result": 3.5, "unit": "µM"},
      {"measurement": "GI50", "setting": "[6]; Homo sapiens, NCI-H522, 48 h", "result": 12, "unit": "µM"},
      {"measurement": "GI50", "setting": "[7]", "result": 3.5, "unit": "µM"},
      {"measurement": "GI50", "setting": "[8]; Homo sapiens, SK-OV-3, 48 h", "result": 3, "unit": "µM"},
      {"measurement": "GI50", "setting": "[9]; Homo sapiens, DU-145, 48 h", "result": 4, "unit": "µM"},
      {"measurement": "GI50", "setting": "[10]", "result": 2000, "unit": "nM"},
      {"measurement": "GI50", "setting": "[11]", "result": 4, "unit": "µM"},
      {"measurement": "melting point", "result": 141, "unit": "°C"}
    ]},
    {"compound": "C=C1CC[C@@H]2[C@](C)(COC(C)=O)[C@H](OC(C)=O)CC[C@@]2(C)[C@@H]1C/C=C1/C(=O)OC[C@H]1OC(=O)C(O)C(NC(=O)c1ccccc1)c1ccccc1", "note": "(stereo partly shown) [Example 18, 3,19-Diacetyl-14-(2′hydroxy-3′-benzoylamino 3′-phenyl)propionyl andrographolide]", "values": [
      {"measurement": "GI50", "setting": "[1]", "result": 8, "unit": "µM"},
      {"measurement": "GI50", "setting": "[3]; 48 h", "result": 8, "unit": "µM"},
      {"measurement": "GI50", "setting": "[4]", "result": 5, "unit": "µM"},
      {"measurement": "GI50", "setting": "[6]; 48 h", "result": 20, "unit": "µM"},
      {"measurement": "GI50", "setting": "[12]", "result": 3, "unit": "µM"},
      {"measurement": "GI50", "setting": "[8]; 48 h", "result": 4, "unit": "µM"},
      {"measurement": "GI50", "setting": "[9]; 48 h", "result": 3, "unit": "µM"},
      {"measurement": "GI50", "setting": "[13]", "result": 10, "unit": "µM"}
    ]},
    {"compound": "C=C1CCC2[C@](C)(COC(=O)CC)[C@H](OC(=O)CC)CC[C@]2(C)[C@H]1C/C=C1/C(=O)OC[C@H]1OC(=O)CNC(=O)OC(C)(C)C", "note": "(stereo partly shown) [Example 20, 14-(N-Boc-glycinyl)-3,19-dipropionyl andrographolide]", "values": [
      {"measurement": "melting point", "result": 65, "unit": "°C"}
    ]},
    {"compound": "C=C1CC[C@@H]2[C@](C)(COC(C)=O)[C@H](OC(C)=O)CC[C@@]2(C)[C@@H]1C/C=C1/C(=O)OC[C@H]1OC(=O)CNC(C)=O", "note": "[Example 22, 14-(N-acetyl-glycinyl)-3,19-diacetyl andrographolide]", "values": [
      {"measurement": "GI50", "setting": "[1]", "result": 8, "unit": "µM"},
      {"measurement": "GI50", "setting": "[3]; 48 h", "result": 1.5, "unit": "µM"},
      {"measurement": "GI50", "setting": "[4]", "result": 5, "unit": "µM"},
      {"measurement": "GI50", "setting": "[6]; 48 h", "result": 20, "unit": "µM"},
      {"measurement": "GI50", "setting": "[12]", "result": 9.5, "unit": "µM"},
      {"measurement": "GI50", "setting": "[8]; 48 h", "result": 30, "unit": "µM"},
      {"measurement": "GI50", "setting": "[9]; 48 h", "result": 8, "unit": "µM"},
      {"measurement": "GI50", "setting": "[13]", "result": 25, "unit": "µM"}
    ]},
    {"compound": "C=C1CCC2[C@](C)(COC(=O)CC)C(OC(=O)CC)CC[C@]2(C)[C@H]1C/C=C1/C(=O)OCC1OC(=O)/C=C/c1ccc(OC)c(OC)c1", "note": "(stereo partly shown) [Example 27, 14-(3,4-dimethoxy)cinnamoyl-3,19-dipropionyl andrographolide]", "values": [
      {"measurement": "melting point", "result": 85.4, "unit": "°C"}
    ]},
    {"compound": "dehydroandrographolide succinic acid monoester [DASM]", "values": [
      {"measurement": "minimal concentration inhibitory to HIV-1 (EIB)", "setting": "[14]", "result": "1.6 to 3.1", "unit": "µg/mL"}
    ]}
  ]
}
